Test results from patent US9045415B2, “Targeting of EWS-FLI1 as anti-tumor therapy” (Georgetown University, priority 2006, dated 2015).
Residues, ends and D or L forms follow the SMILES beside them. *: point of attachment. FITC = O=C1OC2(c3ccc(O)cc3Oc3cc(O)ccc32)c2ccc(NC(=S)*)cc21

Columns and labels:
RHA binding to EWS-FLI1 [1] = test: Competitive ELISA, RHA binding to EWS-FLI1; conditions: RHA 4 nM, E9RP 0.01-30 μM; read-out: IC50, prevention of RHA binding to EWS-FLI1
Protocol: (§1) E9RP is the peptide region of RHA (E9R; SEQ ID NO: 29) fused to the Penetratin peptide (from the Antennapedia homeodomain; SEQ ID NO: 34). In FIG. 5A, E9RP was used in a competition experiment for blocking binding of RHA to EWS-FLI1. Wells were coated with 500 ng EWS-FLI1. RHA (4 nM) was added on to wells in the presence of E9RP (0.01-30 μM). In FIG. 5B, wells were coated with 500 ng/well recombinant CBP. RHA (4 nM) was added to wells with E9RP (0.01-30 μM).
(§2) E9RP was evaluated for the ability to block RHA from binding to EWS-FLI1 using both competitive ELISA assay and solution immunoprecipitation assays. In addition, specificity of interaction was evaluated by disrupting EWS-FLI1 binding from RHA without interfering with other RHA binding proteins. Creb-binding protein (CBP, p300) is critical to cellular basal transcription, so it was determined if a peptide that would disrupt EWS-FLI1 binding from RHA could also disrupt CBP binding.

CBP (aa 1680-1890) = CBP (aa 1680-1890) (Homo sapiens, UniProt Q92793); test: Competitive ELISA, RHA binding to CBP; conditions: RHA 4 nM, E9RP 0.01-30 μM
Chain of CBP (aa 1680-1890) (Q92793 1680-1890): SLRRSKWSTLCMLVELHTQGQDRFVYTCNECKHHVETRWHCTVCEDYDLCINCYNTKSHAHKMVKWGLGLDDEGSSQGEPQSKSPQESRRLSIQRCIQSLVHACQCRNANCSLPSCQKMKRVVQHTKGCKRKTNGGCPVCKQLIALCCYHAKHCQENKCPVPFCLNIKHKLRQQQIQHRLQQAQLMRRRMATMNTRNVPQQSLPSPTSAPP
Protocol: as §1, §2

RHA binding to EWS-FLI1 [2] = test: Solution immunoprecipitation of GST-RHA with recombinant EWS-FLI1; set-up: species or system human
Protocol: E9RP is the peptide region of RHA (E9R; SEQ ID NO: 29) fused to the Penetratin peptide (from the Antennapedia homeodomain; SEQ ID NO: 34). Immunoprecipitation of GST-RHA using recombinant EWS-FLI1 bound to a FLI1 antibody. […] E9RP is the sequence of aa 823-832 of human RHA that were synthesized.
(§3) In FIG. 13A, recombinant EWS-FLI1 was treated with NSC635437 for 30 minutes. GST-RHA (630-1020) was added and the complexes were then precipitated with antibody to EWS-FLI1 and Protein G beads. Resolved complexes showing the immunoprecipitated complex control without compound are in lanes 3 (0.1% DMSO) and 5 (0.01% DMSO). […] ESFT TC32 (◯) and neuroblastoma SK-N-AS (▪) were grown for 72 hours in the continuous presence of NSC635437. Cells were incubated in MTT reagent for 4 hours and the dried precipitate was dissolved isopropanol and the absorbance read at 570 nm. Each cell line was standardized to the growth of the DMSO control.
Protein lysates and immunoprecipitations were performed as previously published (Uren et al (2005)). Recombinant GST-RHA (647-1075) was prepared from crude bacterial extracts without further purification.
Reagents were developed to block RHA binding to EWS-FLI1 since RHA is necessary for optimal EWS-FLI1 activity. The E9R peptide corresponds to amino acids 823 to 832, located in the proximal HA2 region of RHA (FIG. 29A). A cell-free protein interaction assay was developed to test whether E9R peptide inhibits RHA binding to EWS-FLI1. […] It was determined whether disrupted EWS-FLI1/RHA binding inhibited cell growth.

TC32 cells = test: Monolayer cell growth (MTT or WST), TC32; type: cell-based; conditions: TC32 monolayer, 10 μM
Protocol: as §3
(§4) FIG. 30 provides data to show E9R peptide prevents EWS-FLI1 binding to RHA with specific detrimental effects upon ESFT growth and transformation. […] Scale bar equals 20 μm. […] Only expression of EGFP-E9R in TC71 reduced anchorage independent growth. […] Scale bar equals 20 μm.
FIG. 33 provides data showing YK-4-279 is potent and specific inhibitor of ESFT. […] Cell number was measured by MTT or WST reduction after seven days in culture. […] FIG. 33D cell lines expressing EWS-FLI1 compared to non-EWS-FLI1 malignant cell lines following 3 days in culture to establish the IC50 using WST assay. […] Graph plots level of fluorescence in treated divided by untreated lysate. […] Scale bar equals 200 μm.

[3] = system: neuroblastoma SKNAS cells; test: Monolayer cell growth, neuroblastoma; type: cell-based; conditions: E9RP 10 μM; seven days
Description: (§5) FIGS. 8A-E show E9RP inhibits ESFT cell growth. In FIGS. 8A and 8B, E9RP is the peptide region of RHA (SEQ ID NO:29) fused to the Penetratin peptide (from the Antennapedia homeodomain; SEQ ID NO:34) and contains amino-terminal fluorescein (FITC). […] Neither lipids nor electricity were used for transduction of peptides into cells. Confocal microscopy identified peptide throughout cells with nuclear uptake. Nuclear uptake was confirmed by DAPI staining. […] Cell lines were placed in 96-well plates with either vehicle alone (●), or E9RP (10 μM) on days 0, 3 and 5 (▴). No lipid or other transfection method was utilized. This represents two experiments with similar results. FIG. 8D depicts dose response of ESFT 1 to either wild-type or single amino-acid mutant peptides. (▪) wild-type E9RP, (E9R (SEQ ID NO:29) fused to the Penetratin peptide (SEQ ID NO:34)), (▾)(E9RP (P2A peptide (SEQ ID NO:30) fused to the Penetratin peptide (SEQ ID NO:34)), (▴)E9RP (D5A peptide (SEQ ID NO:31) fused to the Penetratin peptide (SEQ ID NO:34)). Growth normalized to treating cells with the 16 aa Antp sequence alone (SEQ ID NO:34). FIG. 8E is a comparison of wild-type versus mutant peptides in ESFT and NB cells.
as §3, §4

[4] = system: ESFT cell lines TC32 (ESFT 1) and 5838 (ESFT 2); test: Peptide growth inhibition, ESFT cell lines 1 and 2; type: cell-based; conditions: 10 μM on days 0, 3 and 5; seven days
Description: as §5

[5] = system: two additional sarcoma cell lines, lacking EWS-FLI1; test: Peptide growth inhibition, additional sarcoma cell lines; type: cell-based; conditions: data not shown
EWS-FLI1 = test: SPR displacement assay of E9R from EWS-FLI1; type: binding
Description: FIG. 31 provides data showing a small molecule binding to EWS-FLI1 and displaces E9R from EWS-FLI1. […] Aromatic functionalization produced YK-4-279 a para-methoxy derivative of NSC635437. […] A FLI1 antibody complexed EWS-FLI1 and precipitated it from the solution.
An aromatic optimization strategy was used to design analogs to improve upon the activity of NSC635437.

TC71 (ESFT) cells = test: Soft-agar anchorage-independent growth, TC71 expressing E9R; type: cell-based
Description: (§6) Plasmids that express E9R fused to enhanced green fluorescent protein (EGFP) were transfected into either Ewing's Sarcoma (TC71) or rhabdomyosarcoma (RP) cells and placed in soft-agar for anchorage-independent growth. The pGE9R plasmid diffusely expressed E9R while the pGCE9R plasmid contained a nuclear export sequence to prevent expressed peptide from entering the nucleus. The transfected cells were placed in soft agar culture for 2 weeks and stained with MTT. When E9R was diffusely expressed, including the nucleus, ESFT (containing EWS-FLI1) soft-agar colony growth was suppressed.
as §4
Since the Antp peptides added to media would not remain in the cells for 2 weeks during soft-agar colony growth, expression peptides were used to provide continuous exposure to peptide. A pair of expression plasmids with cloning sites downstream of the enhanced green fluorescent protein (EGFP) was obtained; the pG plasmid contained no localizing sequence and was expressed throughout the cells (FIG. 9, left panels). The pGC plasmids contained a nuclear export sequence that blocked peptide transport into the nucleus (FIG. 9, right panels). […]

[6] = system: SKNAS (neuroblastoma) cells; test: Soft-agar anchorage-independent growth, SKNAS expressing E9R; type: cell-based; conditions: expressed E9R
Description: as §4

rhabdomyosarcoma cells = test: Soft-agar anchorage-independent growth, rhabdomyosarcoma cells expressing E9R; type: cell-based; conditions: E9R expression
Description: as §6
Since the Antp peptides added to media would not remain in the cells for 2 weeks during soft-agar colony growth, expression peptides were used to provide continuous exposure to peptide. A pair of expression plasmids with cloning sites downstream of the enhanced green fluorescent protein (EGFP) was obtained; the pG plasmid contained no localizing sequence and was expressed throughout the cells (FIG. 9, left panels). The pGC plasmids contained a nuclear export sequence that blocked peptide transport into the nucleus (FIG. 9, right panels). The E9R DNA sequence was synthesized and the hybridized oligodeoxynucleotides were inserted into the cloning site downstream of either EGFP or EGFP and nuclear export sequence.

ESFT cells TC71 = test: Xenografts of TC71 cells transfected with E9R expression plasmids; type: in vivo, mice; conditions: pGE9R vs pGE9R-D5A, 26 days
Protocol: ESFT cells TC71 were transfected with pGE9R (wild-type sequence peptide (SEQ ID NO: 29)) or pGE9R-D5A (control, mutated peptide; D5A (SEQ ID NO: 31)). In FIG. 10A, fluorescent micrographs of transfected cells after 4 days in culture are presented. […] Bar equals 300 microns. In FIG. 10B, each group contains six mice. Mice legs were measured every 2-3 days. Tumors appeared in 2 weeks. The experiment was terminated after 26 days when the largest tumor caused the mouse to limp. Tumor volumes were calculated according to (D×d2/6)×π formula, where large diameter of tumor mass is D and small diameter is d. 2-way ANOVA analysis, followed by Bonferroni correction for multiple variables, the difference in the two growth curves was highly significant, p=0.016.
The ability of the E9R peptide sequence to prevent ESFT tumorigenesis in a pilot murine xenograft experiment was determined. As a control peptide, the same mutation that prevented wild-type RHA from binding to EWS-FLI1 (D827A, noted in the 10-mer peptide as E9R-D5A) was created. ESFT cells were transfected with either pGE9R or pGE9R-D5A by electroporation. A transfection efficiency of greater than 80% using fluorescent microscopy (FIG. 10A) was observed. […] Every two to three days, each animal's thigh was measured in three dimensions, and tumor volumes were calculated. […]

## CC[C@H](C)[C@H](NC(=O)[C@H](CCCCN)NC(=O)[C@@H](NC(=O)[C@H](CCC(N)=O)NC(=O)[C@H](CCCNC(=N)N)NC(=S)Nc1ccc2c(c1)C(=O)OC21c2ccc(O)cc2Oc2cc(O)ccc21)[C@@H](C)CC)C(=O)N[C@@H](Cc1c[nH]c2ccccc12)C(=O)N[C@@H](Cc1ccccc1)C(=O)N[C@@H](CCC(N)=O)C(=O)N[C@@H](CC(N)=O)C(=O)N[C@@H](CCCNC(=N)N)C(=O)N[C@@H](CCCNC(=N)N)C(=O)N[C@@H](CCSC)C(=O)N[C@@H](CCCCN)C(=O)N[C@@H](Cc1c[nH]c2ccccc12)C(=O)N[C@@H](CCCCN)C(=O)N[C@@H](CCCCN)C(=O)N1CCC[C@H]1C(=O)N1CCC[C@H]1C(=O)N1CCC[C@H]1C(=O)N[C@@H](CC(C)C)C(=O)N[C@@H](CC(=O)O)C(=O)N[C@@H](C)C(=O)N[C@H](C(=O)N[C@H](C(=O)N[C@@H](CCC(=O)O)C(=O)N[C@@H](C)C(=O)O)[C@@H](C)CC)C(C)C [E9RP] ({FITC}-RQIKIWFQNRRMKWKKPPPLDAVIEA-OH; C-terminus assumed)
RHA binding to EWS-FLI1 [1]
  IC50: ~200 nM
CBP (aa 1680-1890)
  effect upon the binding of CBP: lacking a dose-dependent effect
RHA binding to EWS-FLI1 [2]; GST-RHA (630-1020), read-out: IC50 to prevent complex formation
  IC50: ~100 nM
TC32 cells
  ESFT cell growth with fluorescein conjugated peptides: significantly reduced ESFT cell growth
[3]
  cell growth: did not affect the growth
[4]
  cell growth: inhibited the growth
[5]
  cell growth: not growth inhibited

## PPPLDAVIEA [E9R, peptide corresponding to aa 823-832 of human RHA]
EWS-FLI1; 32 μM E9R alone
  binding of E9R to EWS-FLI1: 13 R.U.
EWS-FLI1; 64 μM E9R alone
  binding of E9R to EWS-FLI1: 17 R.U.
RHA binding to EWS-FLI1 [2]; GST-RHA (647-1075) and full-length EWS-FLI1
  concentration giving decreased association to 50%: 0.1 µM
TC71 (ESFT) cells; E9R expressed as EGFP fusion throughout the cell
  reduction of TC71 colony formation: 95%
TC71 (ESFT) cells; E9R expressed throughout cells (pGE9R)
  soft agar colony growth: suppressed
[6]
  anchorage-independent growth: not affected
Rhabdomyosarcoma cells
  soft agar colony growth: not reduced
ESFT cells TC71
  xenograft growth of cells expressing peptide: reduces ESFT xenografts growth
